Test results reported in patent US12172995B2, “Substituted indole and indazole compounds” (BRISTOL-MYERS SQUIBB COMPANY, priority 2018, dated 2024).

Key:
Type in all cases: cell-based
human TLR9 = molecular target: T1, human TLR9 (Homo sapiens, UniProt Q9NR96); assay: TLR9 inhibition reporter assay (HEK-Blue SEAP); conditions: HEK-Blue cells overexpressing human TLR9, stimulated with ODN2006 5 nM, 22 hour incubation
T1 construct: host or cells: HEK-Blue cells
T1 sequence (Q9NR96 26-1032): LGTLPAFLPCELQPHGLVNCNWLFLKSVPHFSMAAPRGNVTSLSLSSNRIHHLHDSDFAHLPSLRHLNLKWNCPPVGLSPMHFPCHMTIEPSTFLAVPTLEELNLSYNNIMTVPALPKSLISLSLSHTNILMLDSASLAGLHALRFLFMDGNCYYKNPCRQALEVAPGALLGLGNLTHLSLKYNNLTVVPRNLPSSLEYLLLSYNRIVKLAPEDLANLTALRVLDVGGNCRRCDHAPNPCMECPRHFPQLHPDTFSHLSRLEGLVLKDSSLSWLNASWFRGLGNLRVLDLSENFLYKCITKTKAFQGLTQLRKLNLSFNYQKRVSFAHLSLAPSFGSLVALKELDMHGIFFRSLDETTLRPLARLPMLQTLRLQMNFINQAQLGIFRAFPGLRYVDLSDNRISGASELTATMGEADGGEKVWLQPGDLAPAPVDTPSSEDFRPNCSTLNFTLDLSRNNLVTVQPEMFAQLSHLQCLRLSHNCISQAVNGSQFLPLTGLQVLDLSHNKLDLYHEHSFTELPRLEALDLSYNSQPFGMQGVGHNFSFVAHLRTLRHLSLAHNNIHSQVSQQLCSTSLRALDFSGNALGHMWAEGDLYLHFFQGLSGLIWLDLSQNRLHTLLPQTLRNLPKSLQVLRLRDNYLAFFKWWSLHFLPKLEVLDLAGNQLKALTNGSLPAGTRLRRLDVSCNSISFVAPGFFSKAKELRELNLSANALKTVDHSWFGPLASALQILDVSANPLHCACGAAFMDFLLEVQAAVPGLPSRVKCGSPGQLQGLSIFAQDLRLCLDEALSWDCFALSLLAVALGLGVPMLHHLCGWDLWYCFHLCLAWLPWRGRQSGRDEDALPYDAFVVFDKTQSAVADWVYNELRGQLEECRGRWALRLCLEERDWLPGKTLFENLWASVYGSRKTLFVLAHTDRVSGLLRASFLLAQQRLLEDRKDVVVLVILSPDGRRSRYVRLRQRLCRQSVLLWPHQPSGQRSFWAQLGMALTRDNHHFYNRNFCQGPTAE
Method in brief: (§1)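 Percent inhibition reflects SEAP reduction after 22 h at 37° C, relative to agonist-plus-DMSO and known-inhibitor controls. Compounds (0.05 nM to 50 μM) were added 30 min before agonist: TLR9 cells received ODN2006 5 nM, TLR8 cells R848 15.9 μM, TLR7 cells gardiquimod 7.5 μM; human receptor-expressing HEK-Blue reporter lines.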

human TLR7 = molecular target: T2, human TLR7 (Homo sapiens, UniProt Q9NYK1); assay: TLR7 inhibition reporter assay (HEK-Blue SEAP); conditions: HEK-Blue cells overexpressing human TLR7, stimulated with gardiquimod 7.5 μM, 22 hour incubation
T2 construct: host or cells: HEK-Blue cells
T2 sequence (Q9NYK1 27-1049): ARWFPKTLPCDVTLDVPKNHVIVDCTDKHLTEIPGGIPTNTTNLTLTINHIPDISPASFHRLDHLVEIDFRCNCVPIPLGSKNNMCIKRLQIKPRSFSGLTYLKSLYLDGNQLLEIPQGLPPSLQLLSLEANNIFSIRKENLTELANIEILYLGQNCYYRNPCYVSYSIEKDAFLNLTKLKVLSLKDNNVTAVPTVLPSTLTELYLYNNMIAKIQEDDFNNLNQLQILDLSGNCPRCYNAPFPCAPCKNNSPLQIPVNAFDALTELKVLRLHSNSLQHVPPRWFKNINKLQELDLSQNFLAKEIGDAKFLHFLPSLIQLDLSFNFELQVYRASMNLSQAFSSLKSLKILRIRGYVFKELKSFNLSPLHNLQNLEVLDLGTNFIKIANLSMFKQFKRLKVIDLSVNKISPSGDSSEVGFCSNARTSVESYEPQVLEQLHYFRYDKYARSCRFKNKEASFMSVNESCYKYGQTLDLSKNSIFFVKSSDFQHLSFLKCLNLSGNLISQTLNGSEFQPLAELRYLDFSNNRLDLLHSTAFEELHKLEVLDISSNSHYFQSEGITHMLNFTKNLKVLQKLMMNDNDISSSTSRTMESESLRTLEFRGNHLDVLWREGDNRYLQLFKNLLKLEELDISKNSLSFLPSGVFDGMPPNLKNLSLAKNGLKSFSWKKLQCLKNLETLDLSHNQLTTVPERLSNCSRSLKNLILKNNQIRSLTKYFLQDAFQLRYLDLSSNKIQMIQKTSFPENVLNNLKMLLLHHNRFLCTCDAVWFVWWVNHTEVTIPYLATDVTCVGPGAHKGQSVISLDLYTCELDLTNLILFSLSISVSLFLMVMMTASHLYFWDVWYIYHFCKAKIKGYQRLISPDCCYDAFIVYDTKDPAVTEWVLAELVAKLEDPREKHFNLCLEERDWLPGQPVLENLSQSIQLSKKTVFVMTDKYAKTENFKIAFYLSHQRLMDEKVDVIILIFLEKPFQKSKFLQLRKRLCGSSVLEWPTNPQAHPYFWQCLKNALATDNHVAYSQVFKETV
Method in brief: as §1

human TLR8 = molecular target: T3, human TLR8 (Homo sapiens, UniProt Q9NR97); assay: TLR8 inhibition reporter assay (HEK-Blue SEAP); conditions: HEK-Blue cells overexpressing human TLR8, stimulated with R848 15.9 μM, 22 hour incubation
T3 construct: host or cells: HEK-Blue cells
T3 sequence (Q9NR97 27-1041): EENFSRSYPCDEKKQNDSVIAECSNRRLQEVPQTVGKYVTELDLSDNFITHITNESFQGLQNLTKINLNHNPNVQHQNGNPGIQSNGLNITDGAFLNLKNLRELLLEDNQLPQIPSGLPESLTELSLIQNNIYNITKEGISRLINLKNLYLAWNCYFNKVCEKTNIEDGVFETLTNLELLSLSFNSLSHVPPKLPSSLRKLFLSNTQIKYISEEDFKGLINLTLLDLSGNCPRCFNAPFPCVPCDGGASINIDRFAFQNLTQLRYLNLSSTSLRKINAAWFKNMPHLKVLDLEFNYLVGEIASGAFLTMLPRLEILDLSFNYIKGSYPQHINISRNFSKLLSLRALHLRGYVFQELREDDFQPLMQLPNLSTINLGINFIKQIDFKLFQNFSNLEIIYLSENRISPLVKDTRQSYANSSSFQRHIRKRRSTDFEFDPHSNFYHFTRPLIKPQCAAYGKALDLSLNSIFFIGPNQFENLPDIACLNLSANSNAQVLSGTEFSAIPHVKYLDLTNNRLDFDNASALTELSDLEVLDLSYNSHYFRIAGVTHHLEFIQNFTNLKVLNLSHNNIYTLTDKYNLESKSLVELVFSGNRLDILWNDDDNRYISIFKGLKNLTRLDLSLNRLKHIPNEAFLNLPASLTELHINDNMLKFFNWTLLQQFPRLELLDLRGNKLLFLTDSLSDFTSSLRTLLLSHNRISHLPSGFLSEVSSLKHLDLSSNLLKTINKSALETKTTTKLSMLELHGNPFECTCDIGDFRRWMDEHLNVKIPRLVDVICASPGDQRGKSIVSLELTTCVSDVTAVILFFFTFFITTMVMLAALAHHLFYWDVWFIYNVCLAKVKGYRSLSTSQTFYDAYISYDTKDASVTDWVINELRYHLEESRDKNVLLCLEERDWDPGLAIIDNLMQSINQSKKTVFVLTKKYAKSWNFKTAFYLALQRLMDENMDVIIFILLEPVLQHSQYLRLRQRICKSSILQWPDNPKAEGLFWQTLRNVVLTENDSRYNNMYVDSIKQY
Method in brief: as §1

Compound | IC50 (human TLR9) [nM] | IC50 (human TLR7) [nM] | IC50 (human TLR8) [nM]
Cc1cc(-c2cc3[nH]nc(C4CCC(N(C)C)CC4)c3cc2C(C)C)cn2ncnc12 (stereo not drawn) [Example 115, 4-(5-isopropyl-6-(8-methyl-[1,2,4]triazolo[1,5-a]pyridin-6-yl)-1H-indazol-3-yl)-N,N-dimethylcyclohexan-1-amine] | 6700 | 0.6 | 0.1
Cc1cc(-c2cc3[nH]nc(C4CCN(C5COC5)CC4)c3cc2C(C)C)cn2ncnc12 [Example 120, 6-(5-isopropyl-3-(1-(oxetan-3-yl)piperidin-4-yl)-1H-indazol-6-yl)-8-methyl-[1,2,4]triazolo[1,5-a]pyridine] | ≥ 50000 | 7.4 | 1.1
Cc1cc(-c2cc(C)c3ncnn3c2)cc2[nH]nc(C3CCCN(C4CCOCC4)C3)c12 (stereo not drawn) [Example 60, 8-methyl-6-(4-methyl-3-(1-(tetrahydro-2H-pyran-4-yl)piperidin-3-yl)-1H-indazol-6-yl)-[1,2,4]triazolo[1,5-a]pyridine] | 4250 | 79.3 | 62.2
Cc1cc2c(C3CCNCC3)n[nH]c2cc1-c1cc(C)c2ncnn2c1C [Example 83, 5,8-dimethyl-6-(5-methyl-3-(piperidin-4-yl)-1H-indazol-6-yl)-[1,2,4]triazolo[1,5-a]pyridine] | 8010 | 45 | 5.5
Cc1cc(-c2cc3[nH]nc(C4CCC(N5CC(C)(C)C5)CC4)c3cc2C(C)C)cn2ncnc12 (single isomer, unassigned) [Example 137, 6-(3-(4-(3,3-dimethylazetidin-1-yl)cyclohexyl)-5-isopropyl-1H-indazol-6-yl)-8-methyl-[1,2,4]triazolo[1,5-a]pyridine] | 8680 | 5.5 | 0.6
Cc1cc2c(NC(=O)C3CCNCC3)n[nH]c2cc1-c1cc(C)c2ncnn2c1 [Example 202, N-(5-methyl-6-(8-methyl-[1,2,4]triazolo[1,5-a]pyridin-6-yl)-1H-indazol-3-yl)piperidine-4-carboxamide] | 9920 | 266 | 15.3
Cc1cc(-c2cc(C)c3ncnn3c2)cc2[nH]nc(OC3CCC(NC4CC4)CC3)c12 (single isomer, unassigned) [Example 190, N-cyclopropyl-4-((4-methyl-6-(8-methyl-[1,2,4]triazolo[1,5-a]pyridin-6-yl)-1H-indazol-3-yl)oxy)cyclohexan-1-amine] | 4510 | 1.6 | 1.9
Cc1cc(-c2cc(C)c3ncnn3c2)cc2[nH]nc(C3CCC(N(C)C)CC3)c12 (stereo not drawn) [Example 80, N,N-dimethyl-4-(4-methyl-6-(8-methyl-[1,2,4]triazolo[1,5-a]pyridin-6-yl)-1H-indazol-3-yl) cyclohexan-1-amine] | 2840 | 3.8 | 2.5
Cc1cc2c(NCCN3CCCC3)n[nH]c2cc1-c1cc(C)c2ncnn2c1 [Example 204, 5-methyl-6-(8-methyl-[1,2,4]triazolo[1,5-a]pyridin-6-yl)-N-(2-(pyrrolidin-1-yl)ethyl)-1H-indazol-3-amine] | 2530 | 85.9 | 1.9
Cc1cc(-c2cc(C)c3ncnn3c2)cc2[nH]nc(OC3CCN(C(=O)CN(C)C)CC3)c12 [Example 175, 2-(dimethylamino)-1-(4-((4-methyl-6-(8-methyl-[1,2,4]triazolo[1,5-a]pyridin-6-yl)-1H-indazol-3-yl)oxy)piperidin-1-yl)ethan-1-one] | 1630 | 5.1 | 10.6
COc1cc2c(C3CCNCC3)n[nH]c2cc1-c1cc(C)c2ncnn2c1 [Example 19, 6-(5-methoxy-3-(piperidin-4-yl)-1H-indazol-6-yl)-8-methyl-[1,2,4]triazolo[1,5-a]pyridine] | 1780 | 31.8 | 11.2
5-methyl-6-(8-methyl-[1,2,4]triazolo[1,5-a]pyridin-6-yl)-N-(piperidin-4-yl)-1H-indazol-3-amine [Example 203] | 1420 | 51.7 | 2.1
CNC1CCC(c2n[nH]c3cc(-c4cc(C)c5ncnn5c4)c(C)cc23)CC1 (stereo not drawn) [Example 44, N-methyl-4-(5-methyl-6-(8-methyl-[1,2,4]triazolo[1,5-a]pyridin-6-yl)-1H-indazol-3-yl)cyclohexan-1-amine] | 5490 | 46.3 | 1.9
Cc1cc2c(C3CCNCC3)n[nH]c2cc1-c1cc(C)c(=O)n(C)c1 [Example 25, 1,3-dimethyl-5-(5-methyl-3-(piperidin-4-yl)-1H-indazol-6-yl)pyridin-2(1H)-one] | 2240 | 263 | 10.4
Cc1cc2c(C3CCC(N(C)C)CC3)n[nH]c2cc1-c1cc(C)c2ncnn2c1 (single isomer, unassigned) [Example 3, N,N-dimethyl-4-(5-methyl-6-(8-methyl-[1,2,4]triazolo[1,5-a]pyridin-6-yl)-1H-indazol-3-yl)cyclohexan-1-amine] | 1120 | 10.2 | 0.4
